In the assay the target is SHP2 (Homo sapiens (Human), UniProt Q06124). Briefly: SHP2 Biochemical Assay (DiFMUP conversion, pIRS1 activating peptide). The procedure: SHP2 activity was monitored by measuring the conversion of the surrogate substrate 6,8-difluoromethylumbelliferyl phosphate (DiFMUP) to the fluorescent product, 6,8-difluoromethylumbelliferone (DiFMU).
SHP2 was pre-incubated with test compounds and the activating peptide pIRS1 (H2N-LN(pY)IDLDLV-(PEG)8-LST(pY)ASINFQK-amide) for 30 min, prior to addition of the […] (DiFMUP), (Thermo Fisher D6567). […] Rates of reaction were then measured over 30 min by monitoring fluorescence on a BMG Pherastar reader at excitation 360 nm/emission 450 nm. IC50 values were calculated from the normalized dose-response plots using four parameter logistic curve fit.

Where [1] appears, read: DiFMUP substrate, 0.25 μM pIRS1 peptide, 30 min pre-incubation, average where more than one data point, read-out: SHP2 (IC50).

Each structure is given as a SMILES string. Structures can show the parent of a compound that is named as a salt. Where two headings read alike, the source gives them in different places.

SHP2, sequence (Q06124 whole entry): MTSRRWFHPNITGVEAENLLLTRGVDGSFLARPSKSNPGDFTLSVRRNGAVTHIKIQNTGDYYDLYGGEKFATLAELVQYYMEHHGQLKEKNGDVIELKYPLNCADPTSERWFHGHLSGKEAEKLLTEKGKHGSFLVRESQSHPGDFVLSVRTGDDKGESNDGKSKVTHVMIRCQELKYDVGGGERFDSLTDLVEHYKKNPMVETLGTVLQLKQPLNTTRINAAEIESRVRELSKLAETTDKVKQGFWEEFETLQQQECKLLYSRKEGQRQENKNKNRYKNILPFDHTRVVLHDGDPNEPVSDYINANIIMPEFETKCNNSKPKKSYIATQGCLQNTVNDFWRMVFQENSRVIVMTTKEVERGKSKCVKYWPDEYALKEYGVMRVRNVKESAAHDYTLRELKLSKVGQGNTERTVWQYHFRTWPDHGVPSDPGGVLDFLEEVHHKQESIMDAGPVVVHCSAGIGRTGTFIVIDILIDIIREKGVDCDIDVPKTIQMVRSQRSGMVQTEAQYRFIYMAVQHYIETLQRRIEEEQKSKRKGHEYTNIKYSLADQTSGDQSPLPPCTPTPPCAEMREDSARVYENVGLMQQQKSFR

As to `Cc1c(-c2n[nH]c3nc(N4[C@@H]5CC[C@H]4C[C@@H](N)C5)c(CO)nc23)ccc2nn(C)c(Cl)c12` [Example 142, {6-[endo-3-amino-8-azabicyclo[3.2.1]octan-8-yl]-3-(3-chloro-2,4-dimethyl-2H-indazol-5-yl)-1H-pyrazolo[3,4-b]pyrazin-5-yl}methanol], under setting [1], the IC50 was 13 nM. Still for that read-out and setting: with `Cn1cc2c(Cl)c(-c3c[nH]c4nc(N5CC[C@H](N)[C@@H](O)C5)cnc34)ccc2n1` [Example 31, (3S,4S)-4-amino-1-[7-(4-chloro-2-methyl-2H-indazol-5-yl)-5H-pyrrolo[2,3-b]pyrazin-3-yl]piperidin-3-ol, hydrochloride salt] the figure was 22 nM; with `Cc1nc2c(-c3ccc4nc(CO)sc4c3Cl)n[nH]c2nc1N1[C@H]2CC[C@@H]1[C@@H](F)[C@@H](N)C2` [Example 132, (6-{6-[(1R,2S,3S,5S)-3-amino-2-fluoro-8-azabicyclo[3.2.1]octan-8-yl]-5-methyl-1H-pyrazolo[3,4-b]pyrazin-3-yl}-7-chloro-1,3-benzothiazol-2-yl)methanol, hydrochloride], 11 nM; with `Cn1cc2c(Cl)c(-c3c[nH]c4nc(N5CCC6(CNC6)C(F)(F)C5)cnc34)ccc2n1` [Example 25, 7-[7-(4-chloro-2-methyl-2H-indazol-5-yl)-5H-pyrrolo[2,3-b]pyrazin-3-yl]-5,5-difluoro-2,7-diazaspiro[3.5]nonane, hydrochloride salt], 52 nM. On to `N[C@H]1C[C@H]2CC[C@@H](C1)N2c1cnc2c(-c3ccc4ncsc4c3Cl)c[nH]c2n1` [Example 13, endo-8-[7-(7-chloro-1,3-benzothiazol-6-yl)-5H-pyrrolo[2,3-b]pyrazin-3-yl]-8-azabicyclo[3.2.1]octan-3-amine, methanesulfonic acid salt], for which the IC50 under setting [1] was 6.2 nM. The same measure, in the same setting: next, `Cc1cc(-c2c[nH]c3nc(N4[C@@H]5CC[C@H]4C[C@@H](N)C5)cnc23)c(Cl)c2cn(C)nc12` [Example 55, endo-8-[7-(4-chloro-2,7-dimethyl-2H-indazol-5-yl)-5H-pyrrolo[2,3-b]pyrazin-3-yl]-8-azabicyclo[3.2.1]octan-3-amine]: 22 nM. Same read-out and setting: with `Cn1ccc2c(Cl)c(-c3c[nH]c4nc(N5CC[C@H](N)[C@H](F)C5)cnc34)ccc2c1=O` [Example 71, 6-{3-[(3R,4S)-4-amino-3-fluoropiperidin-1-yl]-5H-pyrrolo[2,3-b]pyrazin-7-yl}-5-chloro-2-methyl-1,2-dihydroisoquinolin-1-one, hydrochloride salt] the figure was 55 nM; with `Cn1cc2c(Cl)c(-c3c[nH]c4nc(N5[C@@H]6CCC[C@H]5C[C@@H](N)C6)cnc34)ccc2n1` [Example 6, endo-9-[7-(4-chloro-2-methyl-2H-indazol-5-yl)-5H-pyrrolo[2,3-b]pyrazin-3-yl]-9-azabicyclo[3.3.1]nonan-3-amine], 9 nM; with `Cc1nc2c(-c3ccc4nn(C)cc4c3Cl)c[nH]c2nc1N1[C@@H]2CC[C@H]1C[C@H](N)C2` [Example 20, exo-8-[7-(4-chloro-2-methyl-2H-indazol-5-yl)-2-methyl-5H-pyrrolo[2,3-b]pyrazin-3-yl]-8-azabicyclo[3.2.1]octan-3-amine], 10 nM. On the same count and under the same terms, next, `Cn1nc2ccc(-c3c[nH]c4nc(N5[C@@H]6CC[C@H]5C[C@@H](N)C6)cnc34)c(Cl)c2c1Cl` [Example 24, endo-8-[7-(3,4-dichloro-2-methyl-2H-indazol-5-yl)-5H-pyrrolo[2,3-b]pyrazin-3-yl]-8-azabicyclo[3.2.1]octan-3-amine, methanesulfonic acid salt]: 4.3 nM. Consider `N[C@H]1C[C@H]2CC[C@@H](C1)N2c1cnc2c(-c3ccc4[nH]c(=O)sc4c3Cl)c[nH]c2n1` [Example 23, 6-{3-[endo-3-amino-8-azabicyclo[3.2.1]octan-8-yl]-5H-pyrrolo[2,3-b]pyrazin-7-yl}-7-chloro-2,3-dihydro-1,3-benzothiazol-2-one, hydrochloride salt], for which the IC50 under setting [1] is 5.2 nM. On the same count and under the same terms, with `CC(C)Oc1cnc2ccc(-c3n[nH]c4nc(N5[C@H]6CC[C@@H]5[C@@H](F)[C@@H](N)C6)c(CO)nc34)c(Cl)c2n1` [Example 144, {6-[(1R,2S,3S,5S)-3-amino-2-fluoro-8-azabicyclo[3.2.1]octan-8-yl]-3-[5-chloro-3-(propan-2-yloxy)quinoxalin-6-yl]-1H-pyrazolo[3,4-b]pyrazin-5-yl}methanol] the figure was 28 nM; with `COCc1nc2ccc(-c3n[nH]c4nc(N5[C@H]6CC[C@@H]5[C@@H](F)[C@@H](N)C6)c(CO)nc34)c(Cl)c2s1` [Example 143, {6-[(1R,2S,3S,5S)-3-amino-2-fluoro-8-azabicyclo[3.2.1]octan-8-yl]-3-[7-chloro-2-(methoxymethyl)-1,3-benzothiazol-6-yl]-1H-pyrazolo[3,4-b]pyrazin-5-yl}methanol], 6.1 nM; with `Cc1c(-c2n[nH]c3nc(N4[C@H]5CC[C@@H]4[C@@H](F)[C@@H](N)C5)c(CO)nc23)ccc2nn(C)c(Cl)c12` [Example 108, {6-[(1R,2S,3S,5S)-3-amino-2-fluoro-8-azabicyclo[3.2.1]octan-8-yl]-3-(3-chloro-2,4-dimethyl-2H-indazol-5-yl)-1H-pyrazolo[3,4-b]pyrazin-5-yl}methanol], 6.6 nM. Turning to `Cc1noc(Cn2cc3c(Cl)c(-c4c[nH]c5nc(N6[C@@H]7CC[C@H]6C[C@@H](N)C7)cnc45)ccc3n2)n1` [Example 69, endo-8-(7-{4-chloro-2-[(3-methyl-1,2,4-oxadiazol-5-yl)methyl]-2H-indazol-5-yl}-5H-pyrrolo[2,3-b]pyrazin-3-yl)-8-azabicyclo[3.2.1]octan-3-amine, hydrochloride salt], the IC50 turned out to be 6.8 nM. As for `Cc1nc2c(-c3ccc4nn(C)c(Cl)c4c3Cl)n[nH]c2nc1N1[C@H]2CC[C@@H]1[C@@H](F)[C@@H](N)C2` [Example 93, (1R,2S,3S,5S)-8-[3-(3,4-Dichloro-2-methyl-2H-indazol-5-yl)-5-methyl-1H-pyrazolo[3,4-b]pyrazin-6-yl]-2-fluoro-8-azabicyclo[3.2.1]octan-3-amine], the IC50 under setting [1] was 3.6 nM. Still for that read-out and setting: next, `Cn1nc2ccc(-c3n[nH]c4nc(N5[C@@H]6CC[C@H]5CNC6)c(CO)nc34)c(Cl)c2c1Cl` [Example 86, {6-[3,8-diazabicyclo[3.2.1]octan-8-yl]-3-(3,4-dichloro-2-methyl-2H-indazol-5-yl)-1H-pyrazolo[3,4-b]pyrazin-5-yl}methanol]: 7.2 nM.

Take `CCn1nc2ccc(-c3n[nH]c4nc(N5[C@H]6CC[C@@H]5[C@@H](F)[C@@H](N)C6)c(CO)nc34)c(Cl)c2c1Cl` [Example 103, {6-[(1R,2S,3S,5S)-3-amino-2-fluoro-8-azabicyclo[3.2.1]octan-8-yl]-3-(3,4-dichloro-2-ethyl-2H-indazol-5-yl)-1H-pyrazolo[3,4-b]pyrazin-5-yl}methanol]: under setting [1], the IC50 is 8.9 nM.

With `COCc1nc2ccc(-c3c[nH]c4nc(N5[C@@H]6CC[C@H]5C[C@@H](N)C6)cnc34)c(Cl)c2s1` [Example 43, endo-8-{7-[7-chloro-2-(methoxymethyl)-1,3-benzothiazol-6-yl]-5H-pyrrolo[2,3-b]pyrazin-3-yl}-8-azabicyclo[3.2.1]octan-3-amine, hydrochloride salt], under setting [1], the IC50 is 5.8 nM.

(Values after US11466016B2, “Pharmaceutical compounds” (priority 2018, dated 2022).)
